Reference: ChEMBL document CHEMBL1201861, “Genomics of Drug Sensitity in Cancer screening data, Wellcome Trust Sanger Institute”

What was measured:
PC-14 = assay: cells; type: functional, cell-based; conditions: Homo sapiens;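 further: cell viability assay measuring inhibition of PC-14 cell growth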
Description: SANGER: Inhibition of human PC-14 cell growth in a cell viability assay.

LU-99A = assay: cells; type: functional, cell-based; conditions: Homo sapiens;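 further: growth inhibition of LU-99A cells, read out with a cell viability assay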
Description: SANGER: Inhibition of human LU-99A cell growth in a cell viability assay.

HOP-92 = assay: cells; type: functional, cell-based; conditions: Homo sapiens;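 further: cell viability readout, with IC50 reflecting inhibition of HOP-92 cell growth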
Description: SANGER: Inhibition of human HOP-92 cell growth in a cell viability assay.

CFPAC-1 = assay: cells; type: functional, cell-based; conditions: Homo sapiens;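 further: cell viability readout used to gauge suppression of CFPAC-1 cell proliferation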
Description: SANGER: Inhibition of human CFPAC-1 cell growth in a cell viability assay.

NUGC-3 = assay: cells; type: functional, cell-based; conditions: Homo sapiens;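 further: growth inhibition of human NUGC-3 cells, read out with a cell viability assay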
Description: SANGER: Inhibition of human NUGC-3 cell growth in a cell viability assay.

NCI-H2291 = assay: cells; type: functional, cell-based; conditions: Homo sapiens
Description: SANGER: Inhibition of human NCI-H2291 cell growth in a cell viability assay.

NCI-H358 = assay: cells; type: functional, cell-based; conditions: Homo sapiens;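 further: growth inhibition of NCI-H358 human cells, read out with a cell viability assay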
Description: SANGER: Inhibition of human NCI-H358 cell growth in a cell viability assay.

T47D = assay: cells; type: functional, cell-based; conditions: Homo sapiens;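 further: growth inhibition of human T47D cells, measured with a cell viability assay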
Description: SANGER: Inhibition of human T47D cell growth in a cell viability assay.

Ca-Ski = assay: cells; type: functional, cell-based; conditions: Homo sapiens;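 further: cell viability assay measuring inhibition of Ca-Ski cell growth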
Description: SANGER: Inhibition of human Ca-Ski cell growth in a cell viability assay.

NBsusSR = assay: cells; type: functional, cell-based; conditions: Homo sapiens;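 further: growth inhibition of the human cell line, read out with a cell viability assay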
Description: SANGER: Inhibition of human NBsusSR cell growth in a cell viability assay.

647-V = assay: cells; type: functional, cell-based; conditions: Homo sapiens;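 further: growth inhibition of 647-V cells, read out with a cell viability assay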
Description: SANGER: Inhibition of human 647-V cell growth in a cell viability assay.

KP-N-YN = assay: cells; type: functional, cell-based; conditions: Homo sapiens;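 further: growth inhibition of KP-N-YN cells, read out with a cell viability assay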
Description: SANGER: Inhibition of human KP-N-YN cell growth in a cell viability assay.

GMS-10 = assay: cells; type: functional, cell-based; conditions: Homo sapiens;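 further: growth inhibition of GMS-10 cells, read out as cell viability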
Description: SANGER: Inhibition of human GMS-10 cell growth in a cell viability assay.

D-423MG = assay: cells; type: functional, cell-based; conditions: Homo sapiens
Description: SANGER: Inhibition of human D-423MG cell growth in a cell viability assay.

5637 = assay: cells; type: functional, cell-based; conditions: Homo sapiens
Description: SANGER: Inhibition of human 5637 cell growth in a cell viability assay.

YAPC = assay: cells; type: functional, cell-based; conditions: Homo sapiens;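 further: growth inhibition of YAPC cells, measured with a cell viability assay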
Description: SANGER: Inhibition of human YAPC cell growth in a cell viability assay.

KYSE-140 = assay: cells; type: functional, cell-based; conditions: Homo sapiens;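 further: cell viability assay measuring growth inhibition in human KYSE-140 cells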
Description: SANGER: Inhibition of human KYSE-140 cell growth in a cell viability assay.

ZR-75-30 = assay: cells; type: functional, cell-based; conditions: Homo sapiens;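 further: growth inhibition of ZR-75-30 cells, measured with a cell viability readout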
Description: SANGER: Inhibition of human ZR-75-30 cell growth in a cell viability assay.

A549 = assay: cells; type: functional, cell-based; conditions: Homo sapiens;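 further: growth inhibition of A549 cells, read out with a cell viability assay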
Description: SANGER: Inhibition of human A549 cell growth in a cell viability assay.

SW-620 = assay: cells; type: functional, cell-based; conditions: Homo sapiens;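 further: growth inhibition of human SW-620 cells, measured by a cell viability assay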
Description: SANGER: Inhibition of human SW620 cell growth in a cell viability assay.

U-118-MG = assay: cells; type: functional, cell-based; conditions: Homo sapiens
Description: SANGER: Inhibition of human U-118-MG cell growth in a cell viability assay.

YH-13 = assay: cells; type: functional, cell-based; conditions: Homo sapiens;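 further: cell viability readout of growth suppression in the human YH-13 cell line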
Description: SANGER: Inhibition of human YH-13 cell growth in a cell viability assay.

A-431 = assay: cells; type: functional, cell-based; conditions: Homo sapiens;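 further: growth inhibition of A-431 cells, determined with a cell viability read-out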
Description: SANGER: Inhibition of human A431 cell growth in a cell viability assay.

GAMG = assay: cells; type: functional, cell-based; conditions: Homo sapiens;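 further: cell growth inhibition measured by a viability assay in the GAMG human cell line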
Description: SANGER: Inhibition of human GAMG cell growth in a cell viability assay.

OVCAR-8 = assay: cells; type: functional, cell-based; conditions: Homo sapiens;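 further: growth inhibition of human OVCAR-8 cells, read out by a cell viability assay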
Description: SANGER: Inhibition of human OVCAR-8 cell growth in a cell viability assay.

TGBC11TKB = assay: cells; type: functional, cell-based; conditions: Homo sapiens;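 further: growth inhibition of human TGBC11TKB cells, measured by a cell viability assay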
Description: SANGER: Inhibition of human TGBC11TKB cell growth in a cell viability assay.

CHP-134 = assay: SANGER: Inhibition of human CHP-134 cell growth in a cell viability assay.; type: functional, cell-based
CAL-12T = assay: cells; type: functional, cell-based; conditions: Homo sapiens;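 further: growth inhibition of human CAL-12T cells, read out with a cell viability assay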
Description: SANGER: Inhibition of human CAL-12T cell growth in a cell viability assay.

MOLT-13 = assay: cells; type: functional, cell-based; conditions: Homo sapiens;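 further: IC50 for suppression of MOLT-13 cell growth, read out with a cell viability assay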
Description: SANGER: Inhibition of human MOLT-13 cell growth in a cell viability assay.

OE33 = assay: cells; type: functional, cell-based; conditions: Homo sapiens;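 further: growth inhibition of human OE33 cells, measured by a cell viability assay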
Description: SANGER: Inhibition of human OE33 cell growth in a cell viability assay.

HLE = assay: cells; type: functional, cell-based; conditions: Homo sapiens;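 further: growth inhibition of human HLE cells, read out by a cell viability assay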
Description: SANGER: Inhibition of human HLE cell growth in a cell viability assay.

NCI-H1048 = assay: cells; type: functional, cell-based; conditions: Homo sapiens;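 further: growth inhibition of human NCI-H1048 cells, read out with a cell viability assay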
Description: SANGER: Inhibition of human NCI-H1048 cell growth in a cell viability assay.

D-566MG = assay: cells; type: functional, cell-based; conditions: Homo sapiens
SBC-5 = assay: cells; type: functional, cell-based; conditions: Homo sapiens;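 further: cell viability assay read-out, IC50 is the concentration that inhibits growth of the cells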
Description: SANGER: Inhibition of human SBC-5 cell growth in a cell viability assay.

CWR22R = assay: cells; type: functional, cell-based; conditions: Homo sapiens, 22Rv1;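 further: growth inhibition of 22Rv1 cells, read out with a cell viability assay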
Description: SANGER: Inhibition of human 22RV1 cell growth in a cell viability assay.

ChaGo-K-1 = assay: cells; type: functional, cell-based; conditions: Homo sapiens;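 further: growth inhibition of ChaGo-K-1 cells, read out with a cell viability assay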
Description: SANGER: Inhibition of human ChaGo-K-1 cell growth in a cell viability assay.

MDA-MB-134-VI = assay: cells; type: functional, cell-based, Homo sapiens; conditions: Homo sapiens, MDA-MB-134-VI
Description: SANGER: Inhibition of human MDA-MB-134-VI cell growth in a cell viability assay.

KP-N-RT-BM-1 = assay: SANGER: Inhibition of human KP-N-RT-BM-1 cell growth in a cell viability assay.; type: functional, cell-based
K052 = assay: cells; type: functional, cell-based, Homo sapiens; conditions: Homo sapiens, K052;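 further: Read-out from a cell viability assay, IC50 reflecting suppression of K052 cell growth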
Description: SANGER: Inhibition of human K052 cell growth in a cell viability assay.

NALM-6 = assay: cells; type: functional, cell-based, Homo sapiens; conditions: Homo sapiens, NALM-6;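 further: growth inhibition of NALM-6 cells, read out with a cell viability assay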
Description: SANGER: Inhibition of human NALM-6 cell growth in a cell viability assay.

DMS-79 = assay: cells; type: functional, cell-based, Homo sapiens; conditions: Homo sapiens, DMS-79
Description: SANGER: Inhibition of human DMS-79 cell growth in a cell viability assay.

COR-L279 = assay: SANGER: Inhibition of human COR-L279 cell growth in a cell viability assay.; type: functional, cell-based; conditions: Homo sapiens, COR-L279
SNU-C1 = assay: cells; type: functional, cell-based, Homo sapiens; conditions: Homo sapiens, SNU-C1;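 further: growth inhibition of SNU-C1 human cells, read out by a cell viability assay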
Description: SANGER: Inhibition of human SNU-C1 cell growth in a cell viability assay.

EB2 = assay: cells; type: functional, cell-based, Homo sapiens; conditions: Homo sapiens, EB2;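 further: growth inhibition of EB2 cells, read out with a cell viability assay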
Description: SANGER: Inhibition of human EB2 cell growth in a cell viability assay.

NCI-H345 = assay: cells; type: functional, cell-based, Homo sapiens; conditions: Homo sapiens, NCI-H345;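 further: growth inhibition of NCI-H345 cells measured with a cell viability assay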
Description: SANGER: Inhibition of human NCI-H345 cell growth in a cell viability assay.

KARPAS-422 = assay: cells; type: functional, cell-based, Homo sapiens; conditions: Homo sapiens, KARPAS-422
Description: SANGER: Inhibition of human KARPAS-422 cell growth in a cell viability assay.

MONO-MAC-6 = assay: cells; type: functional, cell-based, Homo sapiens; conditions: Homo sapiens, MONO-MAC-6;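 further: cell viability assay measuring growth inhibition of human MONO-MAC-6 cells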
Description: SANGER: Inhibition of human MONO-MAC-6 cell growth in a cell viability assay.

LP-1 = assay: cells; type: functional, cell-based, Homo sapiens; conditions: Homo sapiens, LP-1;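 further: growth inhibition of human LP-1 cells, with the read-out taken from a cell viability assay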
Description: SANGER: Inhibition of human LP-1 cell growth in a cell viability assay.

SIG-M5 = assay: cells; type: functional, cell-based, Homo sapiens; conditions: Homo sapiens, SIG-M5;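 further: cell viability assay read-out, measuring how strongly growth of cultured human SIG-M5 cells is inhibited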
Description: SANGER: Inhibition of human SIG-M5 cell growth in a cell viability assay.

8505C = assay: cells; type: functional, cell-based; conditions: Homo sapiens
Description: SANGER: Inhibition of human 8505C cell growth in a cell viability assay.

KNS-62 = assay: cells; type: functional, cell-based; conditions: Homo sapiens;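 further: inhibition of cell growth, read out with a cell viability assay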
Description: SANGER: Inhibition of human KNS-62 cell growth in a cell viability assay.

O=C1NC(=O)c2c1c(-c1ccccc1Cl)cc1[nH]c3ccc(O)cc3c21
IC50 (PC-14): > 2 µM
IC50 (LU-99A): > 2 µM
IC50 (HOP-92): 1000 nM
IC50 (CFPAC-1): > 2 µM
IC50 (NUGC-3): > 2 µM
IC50 (NCI-H2291): > 2 µM
IC50 (NCI-H358): > 2 µM
IC50 (T47D): > 2 µM
IC50 (Ca-Ski): > 2 µM
IC50 (NBsusSR): 952 nM
IC50 (647-V): > 2 µM
IC50 (KP-N-YN): > 2 µM
IC50 (GMS-10): > 2 µM
IC50 (D-423MG): > 2000 nM
IC50 5637: > 2 µM
IC50 (YAPC): > 2 µM
IC50 (KYSE-140): > 2 µM
IC50 (ZR-75-30): > 2 µM
IC50 (A549): > 2000 nM
IC50 (SW-620): > 2 µM
IC50 (U-118-MG): > 2 µM
IC50 (YH-13): > 2000 nM
IC50 (A-431): > 2000 nM
IC50 (GAMG): > 2000 nM
IC50 (OVCAR-8): 1180 nM
IC50 (TGBC11TKB): > 2 µM
IC50 (CHP-134): > 2000 nM
IC50 (CAL-12T): > 2 µM
IC50 (MOLT-13): > 2000 nM
IC50 (OE33): > 2 µM
IC50 (HLE): > 2 µM
IC50 (NCI-H1048): > 2000 nM
IC50 (D-566MG): > 2000 nM
IC50 (SBC-5): > 2 µM
IC50 (CWR22R): > 2 µM
IC50 (ChaGo-K-1): > 2 µM

Cc1cc(N2CCOCC2)cc2[nH]c(-c3c(NC[C@@H](O)c4cccc(Cl)c4)cc[nH]c3=O)nc12
IC50 (MDA-MB-134-VI): > 5.12 µM
IC50 (KP-N-RT-BM-1): 1440 nM
IC50 (K052): > 5.12 µM
IC50 (NALM-6): 2970 nM
IC50 (DMS-79): > 5.12 µM
IC50 (COR-L279): > 5.12 µM
IC50 (SNU-C1): 2540 nM
IC50 (EB2): > 5.12 µM
IC50 (NCI-H345): > 5.12 µM
IC50 (KARPAS-422): > 5.12 µM
IC50 (MONO-MAC-6): 608 nM
IC50 (MOLT-13): > 5120 nM
IC50 (LP-1): > 5.12 µM
IC50 (SIG-M5): 323 nM

O=C(NCCCNc1nc(Nc2cccc(NC(=O)N3CCCC3)c2)ncc1I)c1cccs1 [BX-795]
IC50 (PC-14): > 5 µM
IC50 (LU-99A): > 5 µM
IC50 (8505C): 3.8 µM
IC50 (HOP-92): 1270 nM
IC50 (CFPAC-1): > 5 µM
IC50 (NUGC-3): > 5 µM
IC50 (NCI-H2291): > 5 µM
IC50 (NCI-H358): > 5 µM
IC50 (KNS-62): > 5 µM
IC50 (T47D): > 5 µM
IC50 (Ca-Ski): > 5 µM
IC50 (NBsusSR): 1250 nM
IC50 (647-V): > 5 µM
IC50 (KP-N-YN): > 5 µM
IC50 (GMS-10): 4.12 µM
IC50 (D-423MG): 1610 nM
IC50 5637: > 5 µM
IC50 (YAPC): > 5 µM
IC50 (KYSE-140): 3.72 µM
IC50 (ZR-75-30): > 5 µM
IC50 (A549): 2140 nM
IC50 (SW-620): > 5 µM
IC50 (U-118-MG): > 5 µM
IC50 (YH-13): 629 nM
IC50 (A-431): 2760 nM
IC50 (GAMG): 2830 nM
IC50 (OVCAR-8): > 5000 nM
IC50 (TGBC11TKB): > 5 µM
IC50 (CHP-134): 1940 nM
IC50 (CAL-12T): 4.79 µM
IC50 (OE33): > 5 µM
IC50 (HLE): > 5 µM
IC50 (NCI-H1048): 1790 nM
IC50 (D-566MG): 1300 nM
IC50 (SBC-5): > 5 µM
IC50 (CWR22R): > 5 µM
IC50 (ChaGo-K-1): > 5 µM

Cc1ccc(NC(=O)c2ccc(CN3CCN(C)CC3)cc2)cc1Nc1nccc(-c2cccnc2)n1 [IMATINIB]
IC50 (MDA-MB-134-VI): > 2 µM
IC50 (KP-N-RT-BM-1): > 2000 nM
IC50 (K052): > 2 µM
IC50 (NALM-6): > 2000 nM
IC50 (DMS-79): > 2 µM
IC50 (COR-L279): > 2 µM
IC50 (SNU-C1): > 2000 nM
IC50 (EB2): > 2 µM
IC50 (NCI-H345): > 2 µM
IC50 (KARPAS-422): > 2 µM
IC50 (MONO-MAC-6): > 2000 nM
IC50 (MOLT-13): > 2000 nM
IC50 (LP-1): > 2 µM
